Experimental data reported in publication PMC2699117, “Drug Discovery Using Chemical Systems Biology: Repositioning the Safe Medicine Comtan to Treat Multi-Drug and Extensively Drug Resistant Tuberculosis” (PLoS Computational Biology, 2009).

Target: T1, InhA (enoyl-acyl carrier protein reductase) (Mycobacterium tuberculosis, UniProt P9WGR1)
T1 construct: wild-type InhA
Assay: biochemical

T1 sequence (P9WGR1 whole entry, looked up): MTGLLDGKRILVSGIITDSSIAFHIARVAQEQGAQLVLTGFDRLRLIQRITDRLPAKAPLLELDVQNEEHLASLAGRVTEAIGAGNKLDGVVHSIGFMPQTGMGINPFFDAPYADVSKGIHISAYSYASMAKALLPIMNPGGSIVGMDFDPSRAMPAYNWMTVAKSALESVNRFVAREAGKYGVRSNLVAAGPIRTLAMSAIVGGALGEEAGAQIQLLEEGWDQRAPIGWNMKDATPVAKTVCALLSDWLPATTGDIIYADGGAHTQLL

SMILES: CCN(CC)C(=O)/C(C#N)=C/c1cc(O)c(O)c([N+](=O)[O-])c1 [entacapone]
- IC50: 79 ± 10 µM
